Laboratory results taken from EPA's ToxValDB 9.5 (doi:10.2903/j.efsa.2013.3052).

Assays:
Anas platyrhynchos = conditions: short-term; oral; feed; mortality
Apis mellifera = conditions: acute, duration: 48 hours, mortality
Bibionidae = conditions: chronic/long-term; duration: 28 days; other
Cyprinodon variegatus = conditions: acute; duration: 96 hours; mortality
Daphnia magna = conditions: chronic/long-term; duration: 21 days; reproduction
Folsomia candida = conditions: chronic/long-term; duration: 28 days; reproduction
Hypoaspis aculeifer = conditions: chronic/long-term; duration: 14 days; reproduction
Mus musculus = conditions: subchronic; duration: 90 days; oral; diet; organ weight
Neomysis kadiakensis = conditions: acute; duration: 96 hours; mortality
Pimephales promelas = conditions: chronic/long-term; duration: 33 days; behavior

In the case of `O=C(NCCc1ncc(C(F)(F)F)cc1Cl)c1ccccc1C(F)(F)F` [Fluopyram], the LC50 (Anas platyrhynchos) is reported as greater than 1640 mg/kg-day, the LD50 (Apis mellifera; dermal) is reported as greater than 100 µg/piece and the LD50 (Apis mellifera; oral, unspecified) is reported as greater than 102 µg/piece. It also gave an NOEC (Bibionidae) of 1.39 mg/L, an LD50 (Colinus virginianus; acute, oral, mortality) greater than 2000 mg/kg-day and an NOAEL (Colinus virginianus; reproduction developmental) of 7.2 mg/kg-day. For the same molecule, the LC50 (Cyprinodon variegatus) was greater than 0.98 µg/mL, the NOEC (Daphnia magna) was 1.25 mg/L and the NOEC (Folsomia candida) was 104 mg/kg. For the same molecule, the NOEC (Hypoaspis aculeifer) was greater than 415 mg/kg, the NOAEL (Mus musculus) was 5.4 mg/kg-day and the LC50 (Neomysis kadiakensis) was greater than 0.5 µg/mL. For the same molecule, the NOEC (Pimephales promelas) was 0.135 mg/L, the NOAEL (Rattus norvegicus; acute, F, neurology) was 50 mg/kg-day and the LD50 (Rattus norvegicus; acute, oral, mortality) was greater than 2000 mg/kg-day. It also gave an NOAEL (Rattus norvegicus; chronic) of 14.5 mg/kg-day, an NOAEL (Rattus norvegicus; chronic, duration: 2 years, oral, diet, body weight) of 1.2 mg/kg-day and an LC50 (Tagia sp.; acute, duration: 14 days, mortality) greater than 1000 mg/kg. For the same molecule, the NOEC (Tagia sp.; chronic/long-term, duration: 56 days, reproduction) was 11.4 mg/kg.
